# Measured values reported in patent US7560252B2, “Borrelidin-producing polyketide synthase and its use” (priority 2002, dated 2009).
# How the values were obtained:
# [1] = test system: WiDr cell lines of human colon cancer; conditions: JP 9-227,549 and JP 8-173,167; cited from earlier work
# protein synthesis = conditions: cited from earlier work
# capillary tube formation = conditions: rat aorta matrix culture model; cited from earlier work
# [2] = test system: Lewis lung adenocarcinoma; conditions: cited from earlier work
# caspase-3 = conditions: cited from earlier work
# [3] = test system: human umbilical vein endothelial cells (HUVEC); conditions: cited from earlier work
# WiDr cells = conditions: 1.8 mg/kg by intraperitoneal injection; higher degree than TNP-470; cited from earlier work
# B16-BL6 melanoma cells = conditions: same dosage (1.8 mg/kg); cited from earlier work
# S. albus J1074/pEM4A = assay: soaked disk bioassay, control strain; format: cell-based, Streptomyces albus J1074; conditions: disks with borrelidin at 100 & 200 μg/ml, Bennett's agar, overnight at 30° C.
# Excerpt: The self-resistance of S. parvulus strains to borrelidin is most probably due to the product of borO, which encodes a threonyl tRNA synthetase homologue. Threonyl-tRNA synthetase is the molecular target of borrelidin in sensitive strains (Paetz & Ness, 1973). It is predicted that BorO is resistant to the action of borrelidin, and acts to produce threonyl-tRNAs in cells that make borrelidin, effectively complementing the normal threonyl-tRNA which are inhibited. To verify this hypothesis borO was amplified by PCR and cloned in to the expression vector pEM4A, which puts borO under the control of the strong constitutive promoter ermE* (example 26). The resulting vector pborOR was then transformed into the borrelidin-sensitive strain Streptomyces albus J1074 (Chater & Wilde, 1980).
# Resistance to borrelidin was assayed on Bennett's agar containing apramycin at 25 μg/ml. Spores of S. albus J1074/pborOR and the control S. albus J1074/pEM4A were spread onto plates and then disks containing borrelidin at 100 & 200 μg/ml were laid upon the lawn of spores and incubated overnight at 30° C.
# caspase-8 = conditions: cited from earlier work
# [4] = test system: haploid and diploid cells; conditions: at concentrations that do not affect gross protein biosynthesis; cited from earlier work
# [5] = test system: PC-3 cell lines of human prostate cancer; conditions: JP 9-227,549 and JP 8-173,167; cited from earlier work
# [6] = test system: endothelial cell proliferation and endothelial capillary formation; conditions: with respect to borrelidin; cited from earlier work
# [7] = test system: mouse colon adenocarcinoma cells; conditions: subtoxic dose; cited from earlier work
compound,measurement,setting,value
C[C@@H]1C[C@H](C)C[C@H](C)[C@@H](O)CC(=O)O[C@H]([C@@H]2CCC[C@H]2C(=O)O)C/C=C/C=C(/C#N)[C@H](O)[C@@H](C)C1 [Borrelidin],effectiveness against WiDr cell lines,[1],effective
same,IC50 for anti-angiogenesis activity lower than for inhibition of protein synthesis,protein synthesis; 0.4 ng/ml versus 20 ng/ml,50 fold
same,IC50 inhibition of protein synthesis,protein synthesis; cultured rat cells,20 ng/mL
same,IC50,capillary tube formation,0.8 nM
same,IC50 capillary tube formation,capillary tube formation,0.4 ng/mL
same,propagation of metastatic nodules,[2]; after removal of the primary tumour,weakly inhibited
same,caspase-3 activation,caspase-3,activate
same,IC50 anti-proliferative activity towards HUVEC,[3]; cell growth assay,6 ng/mL
same,anti-proliferative activity weaker than the anti-angiogenesis activity,[3]; measured in the same medium,15 fold
same,increment of vascular volume induced by WiDr cells,WiDr cells,significantly reduce the increment of vascular volume
same,inhibition of the formation of spontaneous lung metastases,B16-BL6 melanoma cells,effective
same,haloes of growth inhibition,S. albus J1074/pEM4A,Haloes indicating inhibition of growth were observed
same,caspase-8 activation,caspase-8,activate
same,cell cycle arrest in late G1 phase,[4],arrests both haploid and diploid cells in late G1 phase
same,effectiveness against PC-3 cell lines,[5],effective
CC1CC(C)CC(C)C(O)C(C#N)=CC=CCC(C2CCCC2C(=O)OCCc2ccccn2)OC(=O)CC(O)C(C)C1 (stereo not drawn) [borrelidin-(2-pyridyl)-ethyl ester],"selectivity index, capillary formation inhibitory activity versus cell proliferation",[6],7.5 fold
CC1CC(C)CC(C)C(O)CC(=O)OC(C2CCCC2C(=O)NCc2cccnc2)C(C#N)=CC=CCC(O)C(C)C1 (stereo not drawn) [borrelidin-(3-picolylamide)],metastasis-forming ability of cells transplanted into mouse spleen,[7],considerably decreased
same,increase of micrometastases,"[2]; rats, intraperitoneal and per os administration at subtoxic doses",inhibit very considerably
C[C@@H]1C[C@H](C)C[C@H](C)[C@@H](O)CC(=O)O[C@H]([C@@H]2CCC[C@H]2C(=O)NCCN2CCOCC2)C/C=C/C=C(/C#N)[C@H](O)[C@@H](C)C1 [borrelidin-morpholinoethyl amide],"selectivity index, capillary formation inhibitory activity versus cell proliferation",[6],6 fold
C[C@@H]1C[C@H](C)C[C@H](C)[C@@H](O)CC(=O)O[C@H]([C@@H]2CCC[C@H]2C(=O)OCCN2CCOCC2)C/C=C/C=C(/C#N)[C@H](O)[C@@H](C)C1 [borrelidin-morpholinoethyl ester],"selectivity index, capillary formation inhibitory activity versus cell proliferation",[6],60 fold
borrelidin-amide,"selectivity index, capillary formation inhibitory activity versus cell proliferation",[6],37 fold
